Literature values, collected in US20080095814A1, “Compositions Having a High Antiviral and Antibacterial Efficacy” (THE DIAL CORPORATION, priority 2004, published 2008).

System: rhinoviral infections
Conditions: subjects who used iodine products

## II [iodine]
  colds in users versus placebo users: significantly fewer colds than placebo users
